From EP0470490B1, “Substituted pyrroles” (F. HOFFMANN-LA ROCHE AG, priority 1990, dated 1992) come the findings set out here.

The assay deals with protein kinase C. Nature of the assay: in vitro protein kinase C inhibition: protein kinase-induced incorporation of 32P from [γ-32P]ATP into histone. It counts as biochemical. The following applies: concentration of test compound which reduces by 50% the protein kinase-induced incorporation of 32P from [γ-32P]ATP into histone. The source says: Research Comm. 19 (1979) 1218. The IC50 values in the following Table are that concentration of test compound which reduces by 50% the protein kinase-induced incorporation of ^32P from [γ-^32P]ATP into histone. Table

Each structure is given as a SMILES string. Counter-ions that a name gives are not always drawn.

The IC50 is the concentration that inhibits the measured activity by half. A lower IC50 goes with greater potency in that assay. `CN1C[C@@H]2Cc3c(C4=C(c5cn(C)c6ccccc56)C(=O)NC4=O)c4ccccc4n3C[C@@H]2C1` (relative stereo) [Example 6, cis-3-[2,3,3a,4,11,11a-hexahydro-2-methyl-1H-pyrrolo[3',4':4,5]pyrido-[1,2-a]indol-10-yl]-4-(1-methyl-3-indolyl)-1H-pyrrole-2,5-dione hydrochloride]: 30 nM corresponded to half-maximal inhibition (IC50).
In the case of `CN1C[C@H]2Cc3c(C4=C(c5cn(C)c6ccccc56)C(=O)NC4=O)c4ccccc4n3C[C@@H]2C1` (relative stereo) [Example 14, trans-3-(2,3,3a,4,11,11a-hexahydro-2-methyl-1H-pyrrolo[3',4':4,5]pyrido[1,2-a]indol-10-yl)-4-(1-methyl-3-indolyl)-1H-pyrrole-2,5-dione hydrochloride], inhibition was half-maximal at 7 nM (IC50).
In the case of `Cn1cc(C2=C(c3c4n(c5ccccc35)CCC3(CCNC3)C4)C(=O)NC2=O)c2ccccc21` (stereo not drawn) [Example 1, 3-[6,7,8,9-tetrahydrospiro[pyrido[1,2-a]indole-8,3'-pyrrolidin-10-yl]-4-(1-methyl-3-indolyl)-pyrrole-2,5-dione trifluoroacetate] it was 40 nM.
